According to patent publication US20230058316A1, “PEGYLATED IGE-DEPENDENT HISTAMINE-RELEASING FACTOR (HRF)-BINDING PEPTIDE AND USE THEREOF” (EWHA UNIVERSITY - INDUSTRY COLLABORATION FOUNDATION, priority 2020, published 2023):
Where no end group is shown, it is not given here.

Key:
[1] = Metabolic stability in human liver microsomes; conditions: pH 7.4
Experimental: (§4) Upon completion of the reaction, cold acetonitrile containing internal standard was added, and then deproteinization was carried out. The reactant was centrifuged at 4° C., 4000 rpm for 15 minutes, and the supernatant was analyzed by LC-MS/MS. The system was verified with buspirone, a reference material.

[2] = Metabolic stability in mouse liver microsomes; conditions: NADPH, 37° C., 30 minutes
Experimental: as §4

recombinant HRF = target: T1, recombinant HRF (Homo sapiens, UniProt P13693); assay: Inhibition of IL-8 secretion by HRF in BEAS-2B cells; format: cell-based; conditions: FIG. 7; for inhibition of IL-8 secretion by HRF: 0.75 nM and 7.5 nM with 75 nM recombinant HRF, 24 hours
T1 sequence (P13693 1-172): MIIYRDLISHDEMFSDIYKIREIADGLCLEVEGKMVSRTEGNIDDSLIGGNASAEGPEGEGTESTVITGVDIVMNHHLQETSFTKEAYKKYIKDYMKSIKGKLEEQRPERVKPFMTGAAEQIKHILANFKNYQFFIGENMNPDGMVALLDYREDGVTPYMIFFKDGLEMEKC
Experimental: The PEG (5000)-dTBP2 prepared in Preparative Example 4, Example 1, and Example 2 was diluted with 1% penicillin streptomycin/DMEM for each concentration (0, 0.75 nM, 7.5 nM), incubated with 75 nM recombinant HRF at room temperature for 15 minutes, and then treated to BEAS-2B cells grown to about 70% on a 48 well plate. The cells were cultured in a 37° C., 5% CO2 incubator for 24 hours, and the supernatant was obtained. Then, the released IL-8 was quantified by enzyme immunosorbent detection (Biolegend). The IL-8 enzyme immunosorbent detection was performed according to the protocol of Biolegend Human IL-8 ELISA kit with pre coated plates (431508). 300 μl of wash buffer was added to each well of the plate pre-coated with the IL-8 antibody, and the plate was washed a total of 4 times. Then, 50 μl of the supernatant was added to each well of the plate and left at room temperature for 2 hours. After 2 hours, the supernatant in the plate was removed, and 300 μl of wash buffer was added to each well of the plate. The plate was washed a total of 4 times, and then 100 μl of a detection antibody solution was added to each well of the plate and left at room temperature for 1 hour. Thereafter, 300 μl of wash buffer was added to each well of the plate, and the plate was washed a total of 4 times. Then, 100 μl of Avidin-HRP A solution was added to each well of the plate and left at room temperature for 30 minutes. Finally, 300 μl of wash buffer was added to each well of the plate, and after washing the plate 5 times, 100 μl of substrate solution F was added to each well of the plate and left at room temperature in a dark room. 100 μl of a stop solution was additionally added to each well of the plate, and absorbance was measured at 450 nm and 570 nm. The wash buffer, detection antibody solution, avidin HRP A solution, substrate solution F, and stop solution were all used as reagents included in a kit (431508, Biolegend).

ovalbumin-specific IgE = assay: Ovalbumin-specific IgE secretion in mouse plasma, ovalbumin-induced bronchial asthma and rhinitis mouse model; format: in vivo; conditions: plasma, 1 mg/kg IP, 8 times daily for 8 days
Experimental: (§1) A bronchial asthma and rhinitis animal model was prepared by the following method. An ovalbumin solution was prepared by dissolving ovalbumin in an aluminum hydroxide solution (1 mg/ml) 28 and 14 days before the start of inducing bronchial asthma and rhinitis, and 200 μl of the solution was intraperitoneally injected into each mouse for sensitization. After 14 days of final sensitization, 20 μl of saline/PBS (normal control; NC) or 20 μl of 10 mg/mL ovalbumin solution (positive control; PC) was instilled into the nasal cavity of each lightly anesthetized mouse 4 times every other day for 8 days to induce bronchial asthma and rhinitis.
Ovalbumin is an allergy-causing substance mainly contained in egg whites. […] After completion of the experiment, the mouse was anesthetized by injecting a mixture of zoletil (250 mg/kg) and rompun (50 mg/kg) intraperitoneally, and the chest was opened. 0.8 mL blood was collected by puncture of the heart with a 26 gauge 1 mL syringe coated with heparin. The collected blood was centrifuged at 4° C., 3000 rpm for 10 minutes to obtain plasma components. The amount of ovalbumin-specific IgE in the blood serum obtained through the above process was measured and quantified by enzyme immunosorbent detection method using mouse OVA specific IgE kit (Biolegend, USA).
(§2) Next, in order to confirm whether there is an effect of inhibiting ovalbumin-specific IgE secretion in plasma even when administered in a small number of times, the dTBP2 of Preparative Example 4 and Example 3 was administered to the mouse model of Example 4-1 through intraperitoneal injection once in 4 days for a total of 2 times for 8 days inducing bronchial asthma and rhinitis. The amount of ovalbumin-specific IgE secretion was measured and quantified by the enzyme immunosorbent detection method in the same manner.
(§3) In addition, the dTBP2 of Preparative Example 4 and Example 3 was administered to the mouse model of Example 4-1 through intraperitoneal injection once on the 1st day of 8 days inducing bronchial asthma and rhinitis. The amount of ovalbumin-specific IgE secretion was measured and quantified by the enzyme immunosorbent detection method in the same manner.
The amount of ovalbumin-specific IgE secretion was measured and quantified by the enzyme immunosorbent detection method in the same manner.

IL-5 = IL-5 secretion in bronchoalveolar lavage fluid, ovalbumin-induced bronchial asthma and rhinitis mouse model; format: in vivo; conditions: 1 mg/kg IP
Experimental: as §1
After the end of the experiment, the amount of IL-5 in the supernatant obtained by centrifuging bronchoalveolar lavage fluid was measured and quantified by enzyme immunosorbent detection using mouse IL-5 ELISA kit (Biolegend, USA).
as §2, with “inhibiting IL-5” for “inhibiting ovalbumin-specific IgE”, “secretion” for “secretion in plasma”, “of IL-5” for “of ovalbumin-specific IgE secretion”
as §3, with “IL-5” for “ovalbumin-specific IgE secretion”
The amount of IL-5 was measured and quantified by the enzyme immunosorbent detection method in the same manner.

IL-13 = IL-13 secretion in bronchoalveolar lavage fluid, ovalbumin-induced bronchial asthma and rhinitis mouse model; format: in vivo; conditions: 1 mg/kg IP, 8 times daily for 8 days, FIG. 18
Experimental: as §1
After the end of the experiment, the amount of IL-13 in the supernatant obtained by centrifuging bronchoalveolar lavage fluid was measured and quantified by enzyme immunosorbent detection using mouse IL-13 ELISA kit (R&D system, USA).
as §2, with “inhibiting IL-13” for “inhibiting ovalbumin-specific IgE”, “secretion” for “secretion in plasma”, “of IL-13” for “of ovalbumin-specific IgE secretion”
as §3, with “IL-13” for “ovalbumin-specific IgE secretion”
The amount of IL-13 was measured and quantified by the enzyme immunosorbent detection method in the same manner.

IL-4 = IL-4 secretion in bronchoalveolar lavage fluid, ovalbumin-induced bronchial asthma and rhinitis mouse model; format: in vivo; conditions: 1 mg/kg IP
Experimental: as §1
After the end of the experiment, the amount of IL-4 in the supernatant obtained by centrifuging bronchoalveolar lavage fluid was measured and quantified by enzyme immunosorbent detection using mouse IL-4 ELISA kit (Biolegend, USA).
as §2, with “inhibiting IL-4” for “inhibiting ovalbumin-specific IgE”, “secretion” for “secretion in plasma”, “of IL-4” for “of ovalbumin-specific IgE secretion”
as §3, with “IL-4” for “ovalbumin-specific IgE secretion”
The amount of IL-4 was measured and quantified by the enzyme immunosorbent detection method in the same manner.

[3] = test system: eosinophils in bronchoalveolar lavage fluid; assay: Eosinophil increase in bronchoalveolar lavage fluid, ovalbumin-induced bronchial asthma and rhinitis mouse model; format: in vivo; conditions: 1 mg/kg IP, 8 times daily for 8 days, FIG. 9
Experimental: as §1
After anesthetizing the mouse by injecting a mixture of zoletil (250 mg/kg) and rompun (50 mg/kg) intraperitoneally, a 20-gauge catheter was inserted into the trachea by puncturing the trachea with a knife, and 0.6 mL of PBS at a time was injected-collected three times, and the collection rate was adjusted to 80%. The collected bronchoalveolar lavage fluid was centrifuged at 4° C., 3000 rpm for 10 minutes, and the cell precipitate was resuspended in 0.1 mL of PBS. 20 μL of the suspension was analyzed for the composition of blood cells using a fully automatic hematology analyzer (HEMAVET 950 FS, Drew Scientific, Inc.).

[4] = Pharmacokinetic analysis in ICR mice; format: in vivo; conditions: mouse, plasma, IV, 10 mg/kg
Experimental: The dTBP2 of Preparative Examples 4 and Example 3 was added to a solution prepared in DMSO:PEG400:DW=5:55:40, and this was administered at the concentration of 5 mL/kg. Blood samples were taken at 0.083, 0.25, 0.5, 1, 2, 4, and 8 hours post injection. The blood was centrifuged at 4° C., 3000 rpm for 10 minutes, to which cold acetonitrile containing internal standard was added in an amount 4 times the plasma component, and then deproteinization was carried out. After centrifugation again at 4° C., 13000 rpm for 10 minutes, the supernatant was collected and analyzed by Agilent 6460 LC-MS/MS. Pharmacokinetic analysis was performed with Phoenix WinNonlin (Pharsight ver 6.4, USA) using a non-compartmental analysis model.

O=C1CC2(CCCC2)CC(=O)N1CCCCN1CCN(c2ncccn2)CC1 [Buspirone, buspirone]
remaining at 0.5 h [1]: 6.15% | Mouse (%) remaining after reaction [2]: 0.10%

Example 1: dTBP2 (WYVYPSM) conjugated at the N-terminal with methoxy polyethylene glycol propionaldehyde (5 kDa) ({mPEG propionaldehyde 5 kDa}-WYVYPSM)
inhibition of IL-8 secretion by HRF (recombinant HRF): effective | inhibitory effect on the IL-8 secretion by HRF, comparison among the tested peptides (recombinant HRF): best

Example 2: dTBP2 (WYVYPSM) conjugated at the C-terminal with methoxy polyethylene glycol hydrazide (5 kDa) (WYVYPSM-{mPEG hydrazide 5 kDa})
inhibition of IL-8 secretion by HRF (recombinant HRF): effective

Methoxy polyethylene glycol propionaldehyde (5000) [Preparative Example 1]
inhibition of IL-8 secretion by HRF (recombinant HRF): effective

WYVYPSM [Preparative Example 4, WYVYPSM, reference compound]
inhibiting ovalbumin-specific IgE secretion in plasma (in words) (ovalbumin-specific IgE): very effective | reduction of ovalbumin-specific IgE secretion (ovalbumin-specific IgE; FIG. 22): about 50% | reduction of IL-5 secretion (IL-5; 8 times daily for 8 days, FIG. 10): about 25% | IL-5 secretion inhibitory effect (IL-5; once on the 5th day of 8 days, FIG. 13): weak | reduction of IL-13 secretion (IL-13): about 30% | reduction of IL-4 secretion (IL-4; 8 times daily for 8 days, FIG. 14): about 50% | IL-4 secretion inhibitory effect (IL-4; once on the 5th day of 8 days, FIG. 17): weak | reduction of increased eosinophils vs positive control [3]: about 40% | AUC(0-inf) [4]: 30 ng·h/mL | AUC(0-t) [4]: 20 ng·h/mL | half-life ([4]; read-out: T1/2 (half life) (converted)): 1.91 h | Vd ([4]; read-out: Vss (steady-state volume of distribution)): 783 L/kg
